Test systems include ACHN renal; HCT-116 colon; MOLT-4 leukemia; OVCAR-5 ovarian; RPMI-8226 leukemia; SF-295 CNS; SW-620 colon; TK-10 renal; UACC-62 melanoma.
Common to all, as to test: DTP human tumour cell line panel, 48 h

Where “and” joins values, the source holds several entries; their conditions need not be identical. Equal entries are not always repeated.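 48-hour exposure; five concentrations; linearly interpolated endpoints. The concentration for 50% growth inhibition is given as GI50. At the TGI there is no net growth.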

As a reminder, the TGI is the concentration at which net growth stops. A high value points to lower sensitivity of the cells. In general, GI50 refers to the concentration at which growth is held to half of that of the control.

Take `CCc1ccccc1NC(=O)CCc1n[nH]c(=S)o1`: the TGI is over 100 µM in the assay with ACHN renal; 42.5 µM in the assay with HCT-116 colon; over 100 µM with MOLT-4 leukemia; over 100 µM with OVCAR-5 ovarian; over 100 µM in the assay on RPMI-8226 leukemia; over 100 µM with SF-295 CNS. Moreover, the TGI in the assay with SW-620 colon is 44.1 µM; with TK-10 renal it was over 100 µM; with UACC-62 melanoma, over 100 µM.
On to `O=c1c2ccccc2nc(-c2ccc(Br)cc2)n1NC1OC(CO)C(O)C(O)C1O` (configuration not stated), for which the TGI in the assay with ACHN renal, with HCT-116 colon, in the assay on MOLT-4 leukemia, in the assay on OVCAR-5 ovarian, in the assay with RPMI-8226 leukemia and with SF-295 CNS was over 100 µM throughout. The TGI in the assay on SW-620 colon, in the assay with TK-10 renal and with UACC-62 melanoma was over 100 µM in each case.
On to `C/C=C/C=N/N(C(=O)c1cc([N+](=O)[O-])cc([N+](=O)[O-])c1)C1=NC(c2ccccc2)C(c2ccccc2)=NN1` (configuration not stated), for which the TGI is over 100 µM in the assay on ACHN renal; 84.8 µM in the assay on HCT-116 colon; over 100 µM in the assay with MOLT-4 leukemia; over 100 µM in the assay on OVCAR-5 ovarian; over 100 µM with RPMI-8226 leukemia; over 100 µM in the assay on SF-295 CNS. Further, the concentration for total growth inhibition (TGI) with SW-620 colon, in the assay with TK-10 renal and in the assay with UACC-62 melanoma was over 100 µM each time.
As for `CC(C)NCC(O)COC(=O)c1cccs1` (configuration not stated), the TGI in the assay on ACHN renal, in the assay on MOLT-4 leukemia, in the assay with OVCAR-5 ovarian, in the assay with RPMI-8226 leukemia, in the assay with SW-620 colon and in the assay with TK-10 renal was over 100 µM in each case. The concentration for total growth inhibition (TGI) with UACC-62 melanoma is over 100 µM.
With `C#CCOCn1cnc2c(=S)nc[nH]c21`, the TGI with ACHN renal, in the assay on OVCAR-5 ovarian, in the assay on RPMI-8226 leukemia, in the assay on SF-295 CNS, in the assay on SW-620 colon and in the assay with TK-10 renal was over 100 µM throughout. Besides, in the assay with UACC-62 melanoma, the TGI is over 100 µM.
Turning to `COC(=O)C(C(=O)C(=O)Nc1ccccc1C(C)=O)c1nc2ccc(Cl)cc2[nH]c1=O` (configuration not stated), the TGI with ACHN renal, with HCT-116 colon, with MOLT-4 leukemia, with OVCAR-5 ovarian, in the assay on RPMI-8226 leukemia and in the assay with SF-295 CNS was over 100 µM each time. The TGI in the assay with SW-620 colon, in the assay with TK-10 renal and in the assay with UACC-62 melanoma was over 100 µM throughout.
On to `CCC1=C(C)/C(=C/c2[nH]c(CBr)c(CC)c2C)N=C1CBr`, for which the TGI in the assay on MOLT-4 leukemia is 27.6 µM; in the assay with RPMI-8226 leukemia, 36.7 µM; in the assay on SF-295 CNS it was 42.7 µM; in the assay on SW-620 colon, 25.3 µM; in the assay on TK-10 renal it was 37.6 µM; in the assay with UACC-62 melanoma, 24.6 µM.
For the molecule `Cc1c2c(nn1C(=O)c1nn(-c3ccc(Cl)cc3)cc1O)-c1ccccc1CC2`, the GI50 was 0.0456 µM in the assay on ACHN renal; 0.0339 µM in the assay with HCT-116 colon; 0.0415 µM in the assay on MOLT-4 leukemia; 0.0723 µM in the assay with OVCAR-5 ovarian; 0.0432 µM with RPMI-8226 leukemia; 0.0119 µM in the assay with SF-295 CNS. The GI50 with SW-620 colon is 0.289 µM; in the assay on TK-10 renal, 0.0429 µM; in the assay with UACC-62 melanoma, 0.0507 µM. The TGI in the assay with ACHN renal is over 100 µM; in the assay on HCT-116 colon it was over 100 µM; in the assay on MOLT-4 leukemia, over 39.5 µM; in the assay with OVCAR-5 ovarian, over 100 µM; with SF-295 CNS it was 0.0548 µM; in the assay on SW-620 colon, over 100 µM. The molecule further gave a TGI in the assay on TK-10 renal of over 100 µM.
For the molecule `CC(=O)O[C@H]1C(=O)O[C@@H]2C[C@H]3C(C)=CC(=O)[C@@H](O)[C@]3(C)[C@H]3[C@@]4(O)OC[C@]32[C@@H]1[C@@H](C)[C@H]4O`, the TGI is 0.394 µM with ACHN renal; 1.11 µM and 3.51 µM with OVCAR-5 ovarian; 0.0989 µM in the assay with RPMI-8226 leukemia; 0.291 µM and 0.206 µM with SF-295 CNS; 0.445 µM and 0.653 µM with SW-620 colon; 0.531 µM and 0.2 µM with UACC-62 melanoma. Further, the 50% growth inhibitory concentration (GI50) in the assay with HCT-116 colon is under 0.01 µM; in the assay on MOLT-4 leukemia, under 0.01 µM; in the assay with OVCAR-5 ovarian it was 0.0588 µM; in the assay on RPMI-8226 leukemia it was under 0.0142 µM; with SF-295 CNS, 0.034 µM; in the assay on SW-620 colon it was 0.033 µM. In addition, the GI50 with UACC-62 melanoma is 0.0271 µM.
Consider `NC(CNO)C(=O)O` (configuration not stated), for which the TGI with ACHN renal, in the assay on HCT-116 colon, in the assay on OVCAR-5 ovarian, in the assay with RPMI-8226 leukemia, with SF-295 CNS and in the assay on SW-620 colon was over 100 µM in each case. The TGI in the assay on TK-10 renal and in the assay on UACC-62 melanoma was over 100 µM throughout.
`C[C@@H](CO)OCOCc1ccccc1`: the TGI in the assay with HCT-116 colon, in the assay with MOLT-4 leukemia, in the assay with RPMI-8226 leukemia, with SF-295 CNS, with SW-620 colon and in the assay with UACC-62 melanoma was over 100 µM each time.
`CC#CS(=O)(=O)c1ccccc1`: the TGI was 12.8 µM in the assay with ACHN renal; 17.6 µM in the assay with HCT-116 colon; 1.43 µM in the assay on MOLT-4 leukemia; 18.2 µM in the assay on OVCAR-5 ovarian; 14.5 µM in the assay with SF-295 CNS; 16.5 µM with SW-620 colon. Besides, the TGI in the assay with TK-10 renal was 17.4 µM; in the assay on UACC-62 melanoma, 14.2 µM.
